Data reported in US4435417A, “Antiinflammatory 3H-naphtho[1,2-d]imidazoles” (Gruppo Lepetit S.p.A., priority 1982, dated 1984).

Assays:
[1] = system: carrageenin-induced edema in the rat paw; assay: Carrageenin-induced edema of the rat paw (Winter et al.); type: in vivo; details: po, read-out: Percent inhibition of the carrageenin-induced edema; for inhibition in vivo at 50 mg/kg: 50 mg/kg os; for inhibition in vivo at 100 mg/kg: 100 mg/kg os; for inhibition in vivo at 200 mg/kg: 200 mg/kg os; for inhibition in vivo at 20 mg/kg: 20 mg/kg os
in vivo = details: mouse, po
Description: The toxicities were determined according to Lichtfield and Wilcoxon, Journ. Pharm.

[2] = system: granuloma formed on a cotton pellet implanted subcutaneously in rats; assay: Cotton pellet granuloma test in rats (Meier et al.); details: Rattus norvegicus, po, read-out: Percent inhibition of the granuloma pellet
[3] = system: adjuvant induced arthritis in rats; assay: Adjuvant induced arthritis test in rats (Newbold); type: in vivo, rat; details: rats p.o.
Description: In still another some of the compounds were tested in the adjuvant induced arthritis test in rats.
This test which was performed as described by B. B. Newbold in Bri. Journ. Pharmacol., 21, 127, (1963), is absolutely meaningful, because adjuvant arthritis is one of the best pharmacological tool with which a pharmacologist can investigate compounds as to their possible antiinflammatory activity, owing to the fact that this experimental model of chronic inflammation looks closer like to the conditions of rheumatoid arthritis of the human pathology (see Pearson, C. M., Arthritis and allied conditions, page 119, Lea and Febiger Publ. 1967 and Pearson C. M., J. Chronic Diseases, 16, 863 (1963).
. The measure of effectiveness of the compounds in this test is given by their ability in reducing the volume of the hind paws of the rats.

| Structure (SMILES) | inhibition in vivo at 50 mg/kg [1] | inhibition in vivo at 100 mg/kg [1] | inhibition in vivo at 200 mg/kg [1] | LD50 (in vivo) | inhibition in vivo at 200 mg/kg [2] | inhibition in vivo at 100 mg/kg [2] | % Reduction of the volume of the hind paws over the control ([3]; 200 mg/kg) | inhibition in vivo at 20 mg/kg [1] | % Reduction of the volume of the hind paws over the control ([3]; 100 mg/kg) |
| --- | --- | --- | --- | --- | --- | --- | --- | --- | --- |
| Cn1c(-c2ccccc2)nc2c3ccccc3ccc21 [Example 1, 3-methyl-2-phenyl-3H-naphtho[1,2-d]imidazole] | 24% | 37% | 42% | 1000 mg/kg | 24% | – | – | – | – |
| CCOc1ccc(-c2nc3c4ccccc4ccc3n2C)cc1 [Example 2, 3-methyl-2-(4-ethoxyphenyl)-3H-naphtho[1,2-d]imidazole] | 21% | 37% | 45% | > 1000 mg/kg | 40% | – | – | – | – |
| COc1ccc(-c2nc3c4ccccc4ccc3n2C)cc1 [Example 3, 2-(4-methoxyphenyl)-3-methyl-3H-naphtho[1,2-d]imidazole] | 34% | 41% | – | ~1000 mg/kg | – | 40% | 33% | – | – |
| CN(C)c1ccc(-c2nc3c4ccccc4ccc3n2C)cc1 [Example 4, N,N-dimethyl-4-(3-methyl-3H-naphtho[1,2-d]imidazol-2-yl) benzenamine] | 46% | 54% | – | 500 mg/kg | – | 24% | – | 32% | – |
| Cc1cc(-c2nc3c4ccccc4ccc3n2C)ccc1N(C)C [Example 5, 4-(3-methyl-3H-naphtho[1,2-d]imidazol-2-yl)-2,N,N-trimethylbenzenamine] | 50% | 64% | – | 500 mg/kg | – | 38% | – | 35% | 42% |
| CNc1ccc(-c2nc3c4ccccc4ccc3n2C)cc1 [Example 7, N-methyl-4-(3-methyl-3H-naphtho[1,2-d]imidazol-2-yl)benzenamine] | 37% | 47% | – | 500 mg/kg | – | 33% | – | 29% | – |
| COc1ccc(-c2nc3c4ccccc4ccc3n2C(C)C)cc1 [Example 9, 3-(1-methylethyl)-2-(4-methoxyphenyl)-3H-naphth[1,2-d]imidazole] | 32% | 45% | 48% | – | 45% | – | 53% | – | – |
| CCn1c(-c2ccc(OC)cc2)nc2c3ccccc3ccc21 [Example 15, 3-ethyl-2-(4-methoxyphenyl)-3H-naphtho[1,2-d]imidazole] | 45% | 49% | 52% | > 1000 mg/kg | 31% | – | – | 31% | – |
